Reference: patent publication US20050239873A1 (priority 1999, published 2005)

Key:
Stability in plasma [1] = assay type: in vitro ADME, human; details: for stability: 37° C., 60 min
Procedure: (§1) For analysis of samples, two volumes of cold methanol-acetonitrile (50:50, v/v) were added to portions of plasma, culture medium, or cell extract. The preparations were mixed and then centrifuged to obtain clear supernatants, which were dried at room temperature by compressed air. The residues were dissolved in the mobile phase, and a portion was injected onto the HPLC column.
(§2) The HPLC equipment consisted of a Hewlett Packard 1050 ChemStation with a fluorescence detector (Agilent 100 series). […] The mobile phase was methanol:ammonium acetate buffer (87:13 v/v; 0.2 M; pH 5.8, adjusted with HCl). The flow rate was 1 ml/min. The column elute was monitored fluorometrically at an excitation wavelength of 232 nm and an emission wavelength of 418 nm. The amounts of test compounds present in samples were determined from the peak areas.
(§3) Samples of mouse, rat, dog, and human plasma were incubated at 37° C. with and without addition of NaF (2.5 mg/ml) and EDTA (1 mg/ml). To these preparations, 2-OMe antimycin A1, 2-OMe antimcyin A2, 2-OMe antimycin A3, or 2-OMe antimycin A5, dissolved in methanol, was added to final concentrations of 500 ng/ml. Portions of plasma, taken at selected times after addition of the 2-OMe antimycin analog, were extracted and analyzed.
Similarly, the stability of 2-OMe antimycin A1, 2-OMe antimycin A2, […] in the plasma from mice and humans was evaluated at −80° C. From these preparations, portions were analyzed immediately; other portions were stored at -80° C. and analyzed after 1, 2, and 4 weeks.

plasma proteins [2] = experiment: Binding to plasma proteins (ultrafiltration); assay type: in vitro ADME, mouse; details: presence of NaF+EDTA, 1000 ng/ml
Procedure: (§4) Solutions of 2-OMe antimycin A3 were diluted with plasma (dog or human) containing NaF+EDTA to final concentrations of 1.0 or 0.2 μg/ml. Controls were diluted with water to the same final concentrations. These preparations were incubated at 37° C. for 20 min, at which time portions were taken and placed in the sample reservoirs of Amicon Centrifree® ultrafiltration systems (Millipore Co., Bedford, Mass.). At 37° C., the filter systems were centrifuged until the reservoirs were dry. From each filtrate, portions were taken for analysis by HPLC. The amounts present were designated as “free drug” (F). The concentrations of the unfiltered solutions were also determined by triplicate analyses. This amount represented the “total drug” concentration (T). The percentage of 2-OMe antimycin A3 bound to plasma proteins was calculated by the following formula: % bound=((T−F)/T)×100

Stability in plasma [3] = assay type: in vitro ADME, dog; details: 37° C., 60 min; for stability: presence of NaF/EDTA
Procedure: as §1, §2, §3

plasma proteins [4] = experiment: Binding to plasma proteins (ultrafiltration); assay type: in vitro ADME, human; details: presence of NaF+EDTA, 1000 ng/ml
Procedure: as §4

[5] = system: RPMI-8226 myeloma cell line; experiment: O2 consumption with a Clark electrode; assay type: cell-based, human
Procedure: Respiratory rates of both cell lines were maintained through repeated additions of 10 μM 2-OMeA, to a final concentration of 90 μM. […] Real-time glucose consumption and lactate production by TAMH cells grown on microcarrier beads was monitored using a novel microsequential injection-lab on valve (μSI-LOV) system (Schulz et al., Analyst 127:1293-1298, 2002). […] Since 2-OMeA has no effect on cellular respiration at these concentrations, 2-OMeA induced aerobic glycolysis in TAMH cells. The glycolytic response to 2-OMeA was proportional to cellular BCl-xL protein expression.

[6] = system: TABX2S cells (over-expressing Bcl-xL); experiment: cells
Description: Briefly, a DNA fragment encoding the full-length mouse BCl-xL cDNA was isolated from the plasmid PBS.BCL-xL (Tzung et al., Am. J. Path. 150:1985-1995, 1997, incorporated herein by reference in its entirety) by digestion with the restriction endonuclease EcoRI. This EcoRI fragment was cloned into the EcoRI site of the mammalian expression vector pSFFV (Fuhlbrigge et al., Proc. Nat. Acad. Sci. USA 85:5649-5653, 1988) in both sense and antisense orientations, to form expression plasmids pSFFV.Bcl-xL(sense) or pSFFV.Bcl-xL(antisense), respectively. The tumorigenic murine hepatocyte cell line TAMH was transfected by lipofection (Lipofectamine, Life Technologies, Rockville, Md., according to the manufacturer's recommendations) with the plasmids pSFFV.neo (the control), pSFFV.Bcl-xL(sense) or pSFFV.Bcl-xL(antisense). […] Transfectants were selected for the acquisition of neomycin resistance by growing cells in the presence of 750 μg/ml of G418. Bulk transfectants were cloned by limiting dilution and individual clones were screened by immunoblot analysis to determine the level of BCl-xL protein expression as described below.
Selected transfectants were then tested for whole cell sensitivity to several apoptotic agents. Transfected cells were cultured to reach approximately 80% confluency prior to plating an equal number of cells from selected clones on 12-well tissue culture plates. The transplanted cells were treated with the following apoptotic agents: 5 μM doxorubicin for 48 hours; 5 μM cisplatin for 48 hours; or with 200 U/ml tumor necrosis factor (TNF) plus 1 μg/ml actinomycin D for 18 hours. Cell viability was determined by trypan blue dye exclusion. The percentage of viable cells was calculated by the number of viable cells (treated with a particular apoptogenic agent) divided by the number in the control group (untreated).
TABX2S cells and TABX1A cells were also examined for the effects of various mitochondrial inhibitors. […] Azide was diluted from an aqueous stock solution. […] Controls received an equivalent concentration of diluent. At various time points after drug treatment, cells were trypsinized, and cell viability was determined by trypan blue dye exclusion. The number of viable cells were counted and normalized to control group (i.e., % control=number of viable cells (treated group)/number of viable cells (control group)×100).

Bcl-xLΔC20 = Bcl-xLΔC20 (Homo sapiens, UniProt Q07817); experiment: Calcein leakage from large unilamellar vesicles (pore formation); assay type: biochemical
Bcl-xLΔC20, sequence (Q07817 1-213 limits assumed, stated change not applied): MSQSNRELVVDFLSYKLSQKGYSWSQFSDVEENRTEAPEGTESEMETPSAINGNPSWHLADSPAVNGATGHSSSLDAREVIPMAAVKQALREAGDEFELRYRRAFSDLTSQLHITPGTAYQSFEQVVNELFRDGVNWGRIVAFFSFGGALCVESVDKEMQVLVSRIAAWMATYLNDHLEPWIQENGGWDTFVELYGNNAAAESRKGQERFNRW
Procedure: In this example the ability of antimycin A to prevent pore formation by BCl-xL was tested. […] Recombinant human BCl-xL lacking the C-terminal 20-residue membrane anchor sequence, Bcl-xLΔC20, forms pores in large unilamellar vesicles. A reporter, calcein, can leak out of the vesicles through these pores.
Briefly, a dry film of lipid was resuspended in an aqueous solution containing 40 mM calcein (Molecular Probes, Eugene, Oreg.), 25 mM KCl and 10 mM HEPES (pH 7.0). After 5 freeze-thaw cycles, the lipidic solution was extruded through 2 Nucleopore filters, 0.1 μm pore diameter. […] The size of the vesicle suspension was measured by a Coulter N4 Plus-Sizer to confirm that the mean diameter of the vesicle sample was close to the expected size (100 nm). The osmolalities of all solutions were measured in a cryoscopic osmometer (Wescor Inc., Logan, Utah) and adjusted to 0.21 Osmol/kg by the addition of sodium chloride, as necessary.
Calcein leakage was determined by adding 2-4 μg of purified Bcl-xLΔC20 (5 μg/ml, 161 nM) to a solution of 100 mM NaCl, 10 mM HEPES (pH 5.0) containing the large unilamellar vesicles (50 μM final lipid concentration) described above. Changes in the fluorescence intensity were measured in an Aminco-SLM spectrofluorimeter. […] The 100% fluorescence level for leakage was obtained by detergent lysis (0.1% Triton X-100) of the vesicles containing entrapped calcein.

Compound | stability (Stability in plasma [1]; presence of NaF/EDTA) | amounts remaining after 4 weeks (Stability in plasma [1]; -80° C., presence of NaF/EDTA) [%] | amounts remaining after 4 weeks (Stability in plasma [1]; −80° C., absence of NaF/EDTA) [%] | Protein binding, Mouse (plasma proteins [2]) [%] | added amount remaining (Stability in plasma [3]; absence of NaF/EDTA, 500 ng/ml) [%] | stability (Stability in plasma [3]) | Protein binding, Human (plasma proteins [4]) [%] | dampening of respiration ([5]; 10 μM) [%] | survival ([6]; 2 μg/ml, supplemented with fructose, six hours) [%] | time until cell death readily apparent ([6]; after addition to the cell culture) [h] | Bcl-xL pore-forming activity (calcein leakage) (Bcl-xLΔC20; 12 μM) | cytotoxicity for cells over-expressing Bcl-xL vs control cells ([6]; TABX2S vs TAMH.neo and TABX1A) | inhibition of Bcl-xL pore formation, liposome permeability assay (Bcl-xLΔC20) | respiratory rate ([5]; repeated additions of 10 μM to a final concentration of 90 μM)
CCCCCC[C@H]1C(=O)O[C@H](C)[C@H](NC(=O)c2cccc(NC=O)c2OC)C(=O)O[C@@H](C)[C@@H]1OC(=O)CC(C)C [2-OMeA1, 2-methoxy antimycin A1] | moderately stable | 93 | 86 | 99.0 | 61 | unstable | 99.5 |  |  |  |  |  |  | 
antimycin A |  |  |  |  |  |  |  | > 90 | 33 | ≤ 2 | completely blocked |  |  | 
CCCC[C@H]1C(=O)OC(C)[C@H](NC(=O)c2cccc(NC=O)c2OC)C(=O)O[C@@H](C)C1OC(=O)CC(C)C (some centres unmarked) [2-OMeA3, Antimycin A3 methyl ether] | notable decreases in concentration | 95 | 73 | 99.1 |  | largely stable | 99.9 |  |  |  |  | selective cytotoxicity | almost as well as antimycin A3 | 
2-methoxy antimycin A [2-OMeA] |  |  |  |  |  |  |  |  |  |  |  |  |  | maintained
